Assays:
[1] = system: clozapine-induced sialorrhea; details: in vivo; cited from earlier work
[2] = system: Parkinson's Disease (PD) patients complaining of sialorrhea; details: human, in vivo, po
Procedure: The aim was to assess personal impression by the patients of their sialorrhea symptoms, including, drooling, speech performance, and social interference, as well as the presence of side effects, such as blurred vision, confusion, somnolence, tachycardia, hypotension, or any other discomforting sensation. The patients were evaluated for 2 hours in an outpatient clinic while resting in comfortable armchairs. They rated themselves on a visual analog scale by marking a line representing the amount of disability incurred by their sialorrhea both before and after the treatment by responding to the question: “How would you grade the effect of the drops that you were administered on your sialorrhea?”
The patients were fluctuating PD patients evaluated in the ON state in the morning, having eaten no food for one hour before the test. […] The patients were instructed to perform some chewing like movements in order to distribute the drug homogeneously. The patients were instructed to fill the visual-analogical scale 1 hour after drug intake. In addition, they were asked about the latency of the effect, if any, and if the effect persisted before leaving.

[3] = system: salivary drying in healthy volunteers; details: in vivo
Procedure: The time of first noticeable dryness in the mouth and the time to complete disintegration of the film were noted. Comments about adverse events, taste, and tolerance were also recorded by the participants.
The secondary aims of this study were to determine: time of first noticeable dryness in the mouth, time to complete disintegration of the film, and the acceptability and tolerance of the bioadhesive buccal films by the subject.
A blinded randomized crossover study in healthy volunteers.
In each treatment, the product was blind labeled.
A thin film was removed from an individually wrapped pouch and placed in the inner cheek opposite the molars nearest to the submandibular gland. It was positioned with the fingers and the mucoadhesive property facilitated its adhesion.
Dissolve period: the dissolve period of the film was noted. It was defined as the time after which the film was no longer felt in the oral cavity.
The volunteer recorded the tolerance to the buccal mucosa and overall feel during testing.

[4] = system: dryness of the mouth in human subjects; details: in vivo
Procedure: This was an evaluation of the placebo and drug-containing disks conducted in a closed room while sitting and carrying on an otherwise normal conversation.
No food or drink intake for approximately 2 hours before test. One disk was inserted in the mouth between gum and cheek on the lower right quadrant of mouth.
All sat in a comfortable room and had not eaten for at least one hour before.

[5] = system: Parkinson's Disease (PD) patients suffering from sialorrhea; details: human, in vivo
Text: They were instructed to apply the drops to their tongues on an as needed basis.

[6] = system: sialorrhea in PD patients; details: human, in vivo
[7] = system: salivation in patients with Parkinson's disease; details: in vivo; cited from earlier work
[8] = system: muscarinic receptors in the muscles of the eye; details: cited from earlier work
[9] = system: excessive sialorrhea in children with developmental disabilities; details: cited from earlier work

For `CC(C)[N+]1(C)[C@@H]2CC[C@H]1C[C@@H](OC(=O)C(CO)c1ccccc1)C2` (stereo partly shown) [ipratropium], the clinical response [1] is listed as “partial yet clinically meaningful response” and the “time until effect of the spray wore off” value [1] is listed as 2 to 8 h.
In the case of `CCN(Cc1ccncc1)C(=O)C(CO)c1ccccc1` (stereo not shown) [tropicamide, N-ethyl-N-(4-pyridylmethyl) tropamide], the “effect on heart rate (tachycardia), confusion, somnolence” value [2] is reported as “did not affect heart rate (cause tachycardia), confusion, or somnolence”, the photosensitivity complaints [2] is reported as “No complaint of photosensitivity” and the “side effects or complications” value [2] is reported as “None of the patients developed side effects or complications”. The tolerance [3] was “acceptable”, the “time local numbness first noticed” value ([4]; human) was 20 min and the “change in pupil size” value [4] was “no obvious change in pupil size”. The taste tolerance [5] was “complained of the taste of the medication” and the side effects [6] was “No side effects were observed”.
For `CN1[C@@H]2CC[C@H]1C[C@@H](OC(=O)C(CO)c1ccccc1)C2` (stereo partly shown) [atropine], the “effect after 30 minutes” value [7] is given as “No effect was noted”, the “time results first observed after initial treatment” value [7] is given as “three” and the “time of peak mydriasis effect” value ([8]; in vivo) is given as 30 to 40 min.
In the case of `CN(C)CCOC(=O)C(c1ccccc1)C1(O)CCCC1` (stereo not shown) [cyclopentolate], the duration of effect ([8]; eye drops, some effects may persist for up to several days) is listed as 8 h.
In the case of `C[N+]1(C)CCC(OC(=O)C(O)(c2ccccc2)C2CCCC2)C1` (stereo not drawn) [glycopyrrolate, 3-(α-cyclopentylmandeloy(osy)-1,1-dimethylpyrrolidinium bromide], the “control of excessive sialorrhea” value [9] is listed as “effective” and the “treated individuals with substantial adverse systemic side effects requiring discontinuation” value ([9]; systemic administration) is listed as “approximately 20%”.
